Reference: US20190030036A1, “PHOSPHODIESTERASE INHIBITOR TREATMENT” (Cyrano Therapeutics, Inc., priority 2013, published 2019)

Experiments:
PDE = conditions: non-specific PDE inhibitor; cited from earlier work
asthmatic patients = assay: sGaw after inhaled dry powder in asthmatic patients (Examples 5, 6)
Description: (§1) To test this theory, asthmatic patients are enrolled in a dose escalating single blind study. On arrival to the clinic, subjects are allowed to rest for 20 minutes before baseline measurements of FEV1 (six recordings) and sGaw (five recordings) are made. Subjects receive a dry powder dispenser loaded with a dose of 2 mg theophylline or a dry powder carrier. […] After each inhalation, measurements of sGaw are made at 1, 3, 5, 10, 15, 20, 25, and 30 minutes.
On completion of the last recording, subjects inhale a 200 μg dose of salbutamol from a metered inhaler and a further measurement of sGaw is made after 15 minutes. Subjects are also monitored for coughing and are questioned about the taste of the drug.
as §1, with “Asthmatic patients” for “To test this theory, asthmatic patients”, “of 1” for “of 2”, “mg IBMX formulated as a dry powder” for “mg theophylline”
On completion of the last recording, subjects inhale a 200 μg dose of salbutamol from a metered inhaler and a further measurement of sGaw made after 15 minutes. Subjects are also be monitored for coughing and are questioned about the taste of the drug.

[1] = test system: subjects with a taste and/or smell disorder; assay: Taste and/or smell function after intranasal dosage units in a plume from a multi-dose nasal spray device (Examples 10-15); format: in vivo, human; conditions: once per day in each naris
Source text: The improvements in taste and/or smell function are evidenced by a decrease in the detection threshold for at least one odorant and/or tastant, a decrease in the recognition threshold for at least one odorant and/or tastant, and/or an increase in a magnitude estimation for at least one odorant and/or tastant.

patients with hyposmia = assay: Subjective overall change in smell function; open trial of oral theophylline; format: in vivo, human; conditions: cilostazol added to 600 mg or 800 mg of theophylline in patients who improved <5%
Description: Independently, patients were also required to grade their ability to smell daily on a scale from 0-100, with 0 reflecting no overall smell function over a 24 hour period, 100 reflecting normal overall smell function over this period and numbers from 0-100 reflecting their estimation of their overall ability to smell odors over this period.
After determination of hyposmia, patients were treated in an open label, fixed design, controlled open trial. Patients were given an oral extended release theophylline in divided daily doses taken in the middle of breakfast and lunch. All patients were initially given 200 mg of theophylline; changes in this dose were made based upon subjective responses to therapy. If at a subsequent return visit, patients reported ≥5% subjective improvement in overall smell function, they continued on this same dose of theophylline and were reevaluated after four to six months of continued treatment. Results from any subsequent return from these improved patients were not included in any subsequent data report. All subsequent comparisons between treated and untreated patients were made only between those patients continuing in the study compared to their own measurements obtained in the untreated state. If patients reported <5% subjective improvement, their theophylline dose was increased by 200 mg daily and they were scheduled for retesting at the study site after two to four months at this new dosage. For patients that reported <5% improvement, this sequence continued until patients reached 800 mg of theophylline, at which time the study was considered completed.
Patients returned for reevaluation after two to four months of treatment. Measurements of blood serum theophylline were measured by a fluorescence polarization assay (Abbott, Chicago, Ill.). At this time, subjective changes in smell function were measured independently (compared to patient's memory of previous normal smell function monitored by use of the patients' daily measurements) using the scale from −100−0-+100 previously described. After independently recording their subjective responses, smell function was measured for all four odors with DT, RT, ME and H determined without recourse to prior measurements.
Subjective overall changes in smell acuity were reported by telephone and by FAX or email at two—four month intervals after treatment was initiated using the standardized form in which they measured daily changes in smell acuity using the −100−0-+100 scale as noted above. Using the same criteria noted above, if at their initial two—four month call-in they reported improvement in smell acuity of ≥5%, they continued at 200 mg and returned to the study site at four—six months on this treatment dose. If they reported improvement in smell acuity of <5% their dose of theophylline was increased to 400 mg for an additional two—four months and they then called the study site at the end of this period.

CC(C)Cn1c(=O)n(C)c(=O)c2[nH]cnc21 [IBMX, 3-isobutyl-1-methylxanthine]
IC50 (PDE): 2 to 50 µM | sGaw above the baseline measurement (asthmatic patients; after 30 minutes, inhaled dry powder 1 mg IBMX): 20% | taste and coughing (asthmatic patients; human, in vivo): without the unpleasant taste or the induction of coughing | increase in sGaw relative to 200 μg inhaled salbutamol (asthmatic patients; inhaled dry powder 1 mg IBMX): comparable | time until sGaw baseline is reached (asthmatic patients; inhaled dry powder 1 mg IBMX): one and a half

O=C1CCc2cc(OCCCCc3nnnn3C3CCCCC3)ccc2N1 [cilostazol]
taste and/or smell function [1]: improvement in taste and/or smell function | additional patients with improved smell function (patients with hyposmia): 15%

COc1ccc(Cc2nccc3cc(OC)c(OC)cc23)cc1OC [papaverine]
taste and/or smell function [1]: improvement in taste and/or smell function

O=C(Nc1c(Cl)cncc1Cl)c1ccc(OC(F)F)c(OCC2CC2)c1 [roflumilast]
taste and/or smell function [1]: improvement in taste and/or smell function
